Data published in patent publication US20140093558A1, “STABLE CRYSTAL MODIFICATIONS OF DOTAP CHLORIDE” (MERCK PATENT GMBH, priority 2011, published 2014).
Where two headings read alike, the source gives them in different places.

Key:
[1] = Solubility in acetonitrile; format: physicochemical; settings: room temperature
[2] = Hygroscopicity / handling properties; format: physicochemical; settings: crystalline forms
[3] = Storage stability of crystalline DOTAP chloride, remaining content by HPLC; format: physicochemical; settings: for remaining content of (2R,S)-DOTAP chloride (HPLC) / remaining content/purity of (2R,S)-DOTAP chloride (HPLC): exclusion of air; for stability values compared with crystalline (2R,S)-DOTAP chloride: storage as in Tables 1 and 1a
Protocol: In order to determine the stability of crystalline (2R,S)-DOTAP chloride, the substance is stored at 25° C. and 60% relative humidity (table 1) or at 40° C. and 75% relative humidity (table 1a) with exclusion of air. The remaining content of (2R,S)-DOTAP chloride is measured at periodic intervals and quoted in comparison to the initial value.
The purity and content of DOTAP chloride are determined by means of HPLC using the following method:
HPLC equipment: Agilent 1200 HPLC • column: ODS-3: 150×3 mm, 3 μm. GI Sciences: lnertsil • eluent A: 10 mM pentanesulfonic acid sodium salt in 0.085%ic aqueous H3PO4 • eluent B: 3.85 mM pentanesulfonic acid sodium salt in 94% acetonitrile containing 0.085%ic aqueous H3PO4
• runtime: 25 min • flow: 1.5 ml/min • pressure: ca. 220 bar • column temperature: 50° C. • injection volume: 10 μl
The stability determination can be repeated at any desired time, the values indicated in Tables 1 and 1a are reproducible.

[4] = some in-vitro studies, compared with DOTAP chloride; cited from earlier work
[5] = amorphous form, normal atmospheric humidity levels; cited from earlier work
[6] = storage under protective gas at −20° C.; cited from earlier work
[7] = 25° C., 60% relative humidity, 0 months
[8] = 25° C., 60% relative humidity, 3 months
[9] = 25° C., 60% relative humidity, 6 months
[10] = 25° C., 60% relative humidity, 9 months
[11] = 25° C., 60% relative humidity, 12 months
[12] = 25° C., 60% relative humidity, 24 months
[13] = 25° C., 60% relative humidity, 36 months
[14] = 40° C., 75% relative humidity, 0 months
[15] = 40° C., 75% relative humidity, 3 months
[16] = 40° C., 75% relative humidity, 6 months
[17] = 40° C., 75% relative humidity, 9 months
[18] = 40° C., 75% relative humidity, 12 months

Question: Which results are given for `CCCCCCCC/C=C\CCCCCCCC(=O)OCC(C[N+](C)(C)C)OC(=O)CCCCCCC/C=C\CCCCCCCC.[Cl-]` (racemic) [(2R,S)-DOTAP chloride crystalline, (R,S)-1,2-dioleoyl-3-propyltrimethylammonium chloride]?
Answer: solubility in acetonitrile [1]: virtually insoluble; hygroscopicity [2]: remarkably reduced hygroscopicity; remaining content of (2R,S)-DOTAP chloride (HPLC) [3, 7]: 99.5 % by weight; remaining content/purity of (2R,S)-DOTAP chloride (HPLC) [3, 7]: 99.7 Area-%; remaining content of (2R,S)-DOTAP chloride (HPLC) [3, 8]: 99.7 % by weight; remaining content/purity of (2R,S)-DOTAP chloride (HPLC) [3, 8]: 99.6 Area-%; remaining content of (2R,S)-DOTAP chloride (HPLC) [3, 9]: 99.4 % by weight; remaining content/purity of (2R,S)-DOTAP chloride (HPLC) [3, 9]: 99.5 Area-%; remaining content of (2R,S)-DOTAP chloride (HPLC) [3, 10]: 99.2 % by weight; remaining content/purity of (2R,S)-DOTAP chloride (HPLC) [3, 10]: 99.2 Area-%; remaining content of (2R,S)-DOTAP chloride (HPLC) [3, 11]: 99.5 % by weight; remaining content/purity of (2R,S)-DOTAP chloride (HPLC) [3, 11]: 99.5 Area-%; remaining content of (2R,S)-DOTAP chloride (HPLC) [3, 12]: 99.5 % by weight; remaining content/purity of (2R,S)-DOTAP chloride (HPLC) [3, 12]: 99.7 Area-%; remaining content of (2R,S)-DOTAP chloride (HPLC) [3, 13]: 99.7 % by weight; remaining content/purity of (2R,S)-DOTAP chloride (HPLC) [3, 13]: 99.3 Area-%; degradation on storage ([3]; 25 ± 2° C., after 36 months): The above stability data confirms that crystalline DOTAP chloride is a stable substance. Even after 36-months no significant degradation was observed for the samples stored at 25 ± 2 °C; remaining content of (2R,S)-DOTAP chloride (HPLC) [3, 14]: 99.5 % by weight; remaining content/purity of (2R,S)-DOTAP chloride (HPLC) [3, 14]: 99.7 Area-%; remaining content of (2R,S)-DOTAP chloride (HPLC) [3, 15]: 99.6 % by weight; remaining content/purity of (2R,S)-DOTAP chloride (HPLC) [3, 15]: 99.6 Area-%; remaining content of (2R,S)-DOTAP chloride (HPLC) [3, 16]: 99.6 % by weight; remaining content/purity of (2R,S)-DOTAP chloride (HPLC) [3, 16]: 99.4 Area-%; remaining content of (2R,S)-DOTAP chloride (HPLC) [3, 17]: 98.9 % by weight; remaining content/purity of (2R,S)-DOTAP chloride (HPLC) [3, 17]: 99.3 Area-%; remaining content of (2R,S)-DOTAP chloride (HPLC) [3, 18]: 99.7 % by weight; remaining content/purity of (2R,S)-DOTAP chloride (HPLC) [3, 18]: 99.4 Area-%; degradation on storage ([3]; accelerated conditions, 40 ± 2° C., after 12 months): The above stability data confirms that crystalline DOTAP Chloride is a stable substance. Even at accelerated conditions after 12-months no significant degradation was observed for the samples stored at 40 ± 2 °C; stability determined by HPLC in relation to the starting value ([3]; stored at 25° C. for 36 months): higher than 99 % by weight and area-%; stability determined by HPLC in relation to the starting value ([3]; stored at 40° C. for 12 months): higher than 99 % by weight and area-%

Question: With `CCCCCCCC/C=C\CCCCCCCC(=O)OCC(C[N+](C)(C)C)OC(=O)CCCCCCC/C=C\CCCCCCCC.COS(=O)(=O)[O-]` (stereo not shown) [DOTAP methylsulfate] as the compound, how does the transfection rate [4] read?
Answer: The transfection rate was “better transfection rates than DOTAP chloride”.

Question: What does the source list for `CCCCCCCC/C=C\CCCCCCCC(=O)OCC(C[N+](C)(C)C)OC(=O)CCCCCCC/C=C\CCCCCCCC.[Cl-]` (stereo not shown) [amorphous DOTAP chloride, 1,2-dioleoyloxy-3-trimethylammonium propane chloride]?
Answer: hygroscopicity [5]: extremely hygroscopic; shelf life guaranteed by the manufacturer [6]: about 6 months

Question: For “(R)-1,2-dioleoyl-3-propyltrimethylammonium chloride [Crystalline (2R)-DOTAP chloride]”, which hygroscopicity [2] is on record?
Answer: Its hygroscopicity is “remarkably reduced hygroscopicity”.

Question: What about the “stability values compared with crystalline (2R,S)-DOTAP chloride” value [3] of the same compound?
Answer: Its value is “Crystalline (2R)- and (2S)-DOTAP chloride show comparable stability values”.

Question: For “(S)-1,2-dioleoyl-3-propyltrimethylammonium chloride [Crystalline (2S)-DOTAP chloride]”, which hygroscopicity [2] is on record?
Answer: The hygroscopicity was “remarkably reduced hygroscopicity”.

Question: What about the “stability values compared with crystalline (2R,S)-DOTAP chloride” value [3] of the same compound?
Answer: The value was “Crystalline (2R)- and (2S)-DOTAP chloride show comparable stability values”.
